The source of these data is patent publication US20220125763A1, “COMPOSITIONS PROVIDING ENHANCED ANTIBACTERIAL ACTIVITY AGAINST GRAM-POSITIVE BACTERIA AND USE THEREOF” (ANIFERA LIMITED, priority 2019, published 2022).

Holding throughout (assay): Minimum inhibitory concentration of antibiotic with or without imidazole compound
What all share (format): cell-based

The subject of test [1] is Coagulase-negative staphylococci CN74. As for the experimental part:
(§1) Exemplary embodiments of a 2-(substituted-amino)-imidazole compound in combination with an antibiotic compound were tested to evaluate the effect on minimum inhibitory concentration (MIC).
(§2) In these experiments, a frozen stock of the bacterial strain was streaked onto a sterile brain heart infusion agar plate and incubated at 37° C. for 16-20 hours. After the incubation period, three to five well-isolated bacterial colonies of the same morphologic type were taken from the brain heart infusion agar plate culture and used to inoculate, using a sterile loop, a tube containing 4 mL to 5 mL of cation adjusted Mueller Hinton (MHII) broth. The culture was allowed to grow in a shaking incubator at 220 rpm at 37° C. until the culture reached logarithmic phase, as determined by the measuring of and achieving an optical density (OD) of 0.3 to 0.5 measured at 600 nm. The bacterial concentration of the culture was then adjusted with the addition of MHII broth to achieve the equivalent of 1×10^6 colony-forming unit (CFU)/mL using the approximation that 1×10^9 CFU/mL is equal to OD600 nm=1. Cells were then treated with the designated amount of test compound (shown in Table 1) or a solvent control (dimethyl sulfoxide) for 30 minutes at ambient conditions. Cells were then transferred into 96-well round bottom plates and exposed to 2-fold serial dilutions of the denoted antibiotic.

The subject of test [2] is Staphylococcus aureus Xen30. The note with it: S. aureus Xen30. The protocol:
as §1, §2

Test [3] deals with Coagulase-negative staphylococci CN8. As for the experimental part:
as §1, §2

Test [4] has as its system Staphylococcus aureus B8. The note with it: S. aureus B8. As for the experimental part:
as §1, §2

In test [5] the test system is Coagulase-negative staphylococci CN58. The protocol: as §1, §2
The subject of test [6] is Staphylococcus aureus B12. The conditions noted are these: S. aureus B12. The protocol: as §1, §2

As for penicillin, the “Minimum Inhibitory Concentration of penicillin” value in test [1] (No imidazole compound) is 8 µg/mL; in test [2] (No imidazole compound), 128 µg/mL; in test [3] (No imidazole compound), 2 µg/mL; in test [4] (No imidazole compound) it was 64 µg/mL; in test [5] (No imidazole compound), 32 µg/mL; in test [6] (No imidazole compound), 16 µg/mL.

For `CC(C)Nc1ncc(-c2cccc(NC(=O)Nc3ccc(Cl)c(Cl)c3)c2)[nH]1` [Compound 1, 1-(3,4-dichlorophenyl)-3-(3-(2-(Isopropylamino)-1H-Imidazol-5-yl)phenyl)urea], the “Minimum Inhibitory Concentration of penicillin” value in test [1] (+Compound 1 at 2 μM) is 0.5 µg/mL; in test [2] (+Compound 1 at 4 μM), 8 µg/mL; in test [3] (+Compound 1 at 2 μM), 0.125 µg/mL; in test [4] (+Compound 1 at 2 μM), 2 µg/mL; in test [5] (+Compound 1 at 2 μM), 0.125 µg/mL; in test [6] (+Compound 1 at 2 μM), 1 µg/mL.

Turning to `Cc1onc(-c2ccccc2)c1C(=O)N[C@@H]1C(=O)N2[C@@H]1SC(C)(C)[C@@H]2C(=O)O` [Oxacillin], the MIC in test [2] (Staphylococcus aureus, No imidazole compound, read-out: Minimum Inhibitory Concentration of Oxacillin) is 128 µg/mL.
